Measured values: patent US20260315464A1, “COMPOSITIONS, METHODS, AND SYSTEMS FOR MODULATING SPLICING OF MSH3” (REVIR THERAPEUTICS, INC., priority 2023, published 2026)

Tested on: MSH3
Assay: QPCR assay for levels of MSH3 upon compound treatment in HEK293T or AD293 cells (fold-change of MSH3 transcript, EC50 of MSH3 downregulation; total MSH3 exons 13/14, exons 20/21; Table 8)
Type: cell-based
Conditions: for mrna remaining at 1 µM / mrna remaining at 10 µM: Homo sapiens, fold-change of the MSH3 transcript, normalized to GAPDH; for mrna remaining at 1 µM: 1 μM compound; for mrna remaining at 10 µM: 10 μM compound; for EC50: EC50 of MSH3 downregulation, XtalPi
In short: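 HEK293T or AD293 cells were treated at 1 μM and […]; RNA-to-cDNA qPCR used TaqMan assays for total MSH3 (exons 13/14, exons 20/21) and poison-exon junctions exon 13/PE14A and exon 20/PE21A. Transcript levels were normalized to GAPDH.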

Row | EC50 [nM] | SMILES | mrna remaining at 1 µM [%] | mrna remaining at 10 µM [%]
1 | – | Cn1nc(Cl)c(-c2cc3c(cn2)CN(c2ccc(O[C@H]4C[C@]5(C)CC[C@](C)(C4)N5)nn2)C3=O)n1 [Compound 460, 6-(5-chloro-2-methyl-2H-1,2,3-triazol-4-yl)-2-(6-(((1R,3s,5S)-1,5-dimethyl-8-azabicyclo[3.2.1]octan-3-yl)oxy)pyridazin-3-yl)-2,3-dihydro-1H-pyrrolo[3,4-c]pyridin-1-one] | 80 | 25
2 | – | Cn1ncc(-c2cc3c(cn2)CN(c2ccc(OC4CCC(C)(C)NC(C)(C)C4)nn2)C3=O)n1 (stereo not shown) [Compound 465, 6-(2-methyl-2H-1,2,3-triazol-4-yl)-2-(6-((2,2,7,7-tetramethylazepan-4-yl)oxy)pyridazin-3-yl)-2,3-dihydro-1H-pyrrolo[3,4-c]pyridin-1-one] | 93 | 115
3 | – | Cc1nn(C)cc1-c1cnc2c(c1)C(=O)N(c1ccc(OC3CCC(C)(C)NC(C)(C)C3)nn1)C2 (stereo not shown) [Compound 479, 3-(1,3-dimethyl-1H-pyrazol-4-yl)-6-(6-((2,2,7,7-tetramethylazepan-4-yl)oxy)pyridazin-3-yl)-6,7-dihydro-5H-pyrrolo[3,4-b]pyridin-5-one] | 119 | 56
4 | 363 | Cn1nc(Cl)c(-c2cnc3c(c2)C(=O)N(c2ccc(O[C@H]4C[C@]5(C)CC[C@](C)(C4)N5)nn2)C3)n1 [Compound 480, 3-(5-chloro-2-methyl-2H-1,2,3-triazol-4-yl)-6-(6-(((1R,3s,5S)-1,5-dimethyl-8-azabicyclo[3.2.1]octan-3-yl)oxy)pyridazin-3-yl)-6,7-dihydro-5H-pyrrolo[3,4-b]pyridin-5-one] | 15 | 10
5 | – | Cn1ncc(-c2cnc3c(c2)C(=O)N(c2ccc(OC4CCC(C)(C)NC(C)(C)C4)nn2)C3)n1 (stereo not shown) [Compound 485, 3-(2-methyl-2H-1,2,3-triazol-4-yl)-6-(6-((2,2,7,7-tetramethylazepan-4-yl)oxy)pyridazin-3-yl)-6,7-dihydro-5H-pyrrolo[3,4-b]pyridin-5-one] | 88 | 40
6 | – | Cc1nn(C)cc1-c1cnc2c(c1)C(=O)N(c1ccc(N(C3CC3)C3CC(C)(C)NC(C)(C)C3)nn1)C2 [Compound 487, 6-(6-(cyclopropyl(2,2,6,6-tetramethylpiperidin-4-yl)amino)pyridazin-3-yl)-3-(1,3-dimethyl-1H-pyrazol-4-yl)-6,7-dihydro-5H-pyrrolo[3,4-b]pyridin-5-one] | 133 | 31
7 | – | Cn1nc(Cl)c(-c2cnc3c(c2)C(=O)N(c2ccc(OC4CCC(C)(C)NC(C)(C)C4)nn2)C3)n1 (stereo not shown) [Compound 488, 3-(5-chloro-2-methyl-2H-1,2,3-triazol-4-yl)-6-(6-((2,2,7,7-tetramethylazepan-4-yl)oxy)pyridazin-3-yl)-6,7-dihydro-5H-pyrrolo[3,4-b]pyridin-5-one] | 69 | 19
8 | – | Cc1nn(C)cc1-c1cnc2c(c1)C(=O)N(c1ccc(S[C@H]3C[C@]4(C)CC[C@](C)(C3)N4)nn1)C2 [Compound 490, 3-(1,3-dimethyl-1H-pyrazol-4-yl)-6-(6-(((1R,3s,5S)-1,5-dimethyl-8-azabicyclo[3.2.1]octan-3-yl)thio)pyridazin-3-yl)-6,7-dihydro-5H-pyrrolo[3,4-b]pyridin-5-one] | 90 | 25
9 | – | Cn1nc(Cl)c(-c2cnc3c(c2)C(=O)N(c2ccc(OC4CC(C)(C)NC(C)(C)C4)nn2)C3)n1 [Compound 493, 3-(5-chloro-2-methyl-2H-1,2,3-triazol-4-yl)-6-(6-((2,2,6,6-tetramethylpiperidin-4-yl)oxy)pyridazin-3-yl)-6,7-dihydro-5H-pyrrolo[3,4-b]pyridin-5-one] | 57 | 13
10 | 690 | Cc1nn(C)cc1-c1cnc2c(n1)C(=O)N(c1ccc(N(C)[C@H]3C[C@]4(C)CC[C@](C)(C3)N4)nn1)C2 [Compound 496, 3-(1,3-dimethyl-1H-pyrazol-4-yl)-6-(6-(((1R,3s,5S)-1,5-dimethyl-8-azabicyclo[3.2.1]octan-3-yl)(methyl)amino)pyridazin-3-yl)-6,7-dihydro-5H-pyrrolo[3,4-b]pyrazin-5-one] | – | –
11 | – | Cn1ncc(-c2cnc3c(n2)C(=O)N(c2ccc(O[C@H]4C[C@]5(C)CC[C@](C)(C4)N5)nn2)C3)n1 [Compound 498, 6-(6-(((1R,3s,5S)-1,5-dimethyl-8-azabicyclo[3.2.1]octan-3-yl)oxy)pyridazin-3-yl)-3-(2-methyl-2H-1,2,3-triazol-4-yl)-6,7-dihydro-5H-pyrrolo[3,4-b]pyrazin-5-one] | 67 | 52
12 | – | Cc1nn(C)nc1-c1cnc2c(n1)C(=O)N(c1ccc(OC3CC(C)(C)NC4(CCC4)C3)nn1)C2 (stereo not shown) [Compound 500, 3-(2,5-dimethyl-2H-1,2,3-triazol-4-yl)-6-(6-((6,6-dimethyl-5-azaspiro[3.5]nonan-8-yl)oxy)pyridazin-3-yl)-6,7-dihydro-5H-pyrrolo[3,4-b]pyrazin-5-one] | 101 | 22
13 | – | Cn1nc(Cl)c(-c2cnc3c(n2)C(=O)N(c2ccc(O[C@H]4C[C@]5(C)CC[C@](C)(C4)N5)nn2)C3)n1 [Compound 503, 3-(5-chloro-2-methyl-2H-1,2,3-triazol-4-yl)-6-(6-(((1R,3s,5S)-1,5-dimethyl-8-azabicyclo[3.2.1]octan-3-yl)oxy)pyridazin-3-yl)-6,7-dihydro-5H-pyrrolo[3,4-b]pyrazin-5-one] | 70 | 18
14 | – | Cn1nc(Cl)c(-c2cnc3c(n2)C(=O)N(c2ccc(OC4CCC(C)(C)NC(C)(C)C4)nn2)C3)n1 (stereo not shown) [Compound 509, 3-(5-chloro-2-methyl-2H-1,2,3-triazol-4-yl)-6-(6-((2,2,7,7-tetramethylazepan-4-yl)oxy)pyridazin-3-yl)-6,7-dihydro-5H-pyrrolo[3,4-b]pyrazin-5-one] | 117 | 62
15 | – | Cc1nn(C)nc1-c1cnc2c(c1)C(=O)N(c1ccc(N3CC4CNC4C3)nn1)C2 (stereo not shown) [Compound 559, 6-(6-(3,6-diazabicyclo[3.2.0]heptan-3-yl)pyridazin-3-yl)-3-(2,5-dimethyl-2H-1,2,3-triazol-4-yl)-6,7-dihydro-5H-pyrrolo[3,4-b]pyridin-5-one] | 93 | 53
16 | – | Cc1nn(C)nc1-c1cnc2c(c1)C(=O)N(c1ccc(N3CC4CC3CN4)nn1)C2 (stereo not shown) [Compound 560, 6-(6-(2,5-diazabicyclo[2.2.1]heptan-2-yl)pyridazin-3-yl)-3-(2,5-dimethyl-2H-1,2,3-triazol-4-yl)-6,7-dihydro-5H-pyrrolo[3,4-b]pyridin-5-one] | 81 | 29
17 | – | Cc1nn(C)nc1-c1cnc2c(c1)C(=O)N(c1ccc(N3CC4CCC3CN4)nn1)C2 (stereo not shown) [Compound 563, 6-(6-(2,5-diazabicyclo[2.2.2]octan-2-yl)pyridazin-3-yl)-3-(2,5-dimethyl-2H-1,2,3-triazol-4-yl)-6,7-dihydro-5H-pyrrolo[3,4-b]pyridin-5-one] | 104 | 35
18 | – | Cc1nn(C)nc1-c1cnc2c(c1)C(=O)N(c1ccc(N3CCC4(CCCN4)C3)nn1)C2 (stereo not shown) [Compound 566, 6-(6-(1,7-diazaspiro[4.4]nonan-7-yl)pyridazin-3-yl)-3-(2,5-dimethyl-2H-1,2,3-triazol-4-yl)-6,7-dihydro-5H-pyrrolo[3,4-b]pyridin-5-one] | 133 | 60
19 | – | Cc1nn(C)nc1-c1cnc2c(c1)C(=O)N(c1ccc(N3C[C@H]4CC[C@@H](C3)N4)nn1)C2 [Compound 568, 6-(6-((1R,5S)-3,8-diazabicyclo[3.2.1]octan-3-yl)pyridazin-3-yl)-3-(2,5-dimethyl-2H-1,2,3-triazol-4-yl)-6,7-dihydro-5H-pyrrolo[3,4-b]pyridin-5-one] | 77 | 46
20 | 349 | CN(c1ccc(N2Cc3ncc(-c4nn(C)nc4Cl)cc3C2=O)nn1)[C@H]1C[C@]2(C)CC[C@](C)(C1)N2 [Compound 589, 3-(5-chloro-2-methyl-2H-1,2,3-triazol-4-yl)-6-(6-(((1R,3s,5S)-1,5-dimethyl-8-azabicyclo[3.2.1]octan-3-yl)(methyl)amino)pyridazin-3-yl)-6,7-dihydro-5H-pyrrolo[3,4-b]pyridin-5-one] | 20 | 11
21 | 569 | Cc1nn(C)nc1-c1cnc2c(n1)C(=O)N(c1ccc(N(C)[C@H]3C[C@]4(C)CC[C@](C)(C3)N4)nn1)C2 [Compound 590, 3-(2,5-dimethyl-2H-1,2,3-triazol-4-yl)-6-(6-(((1R,3s,5S)-1,5-dimethyl-8-azabicyclo[3.2.1]octan-3-yl)(methyl)amino)pyridazin-3-yl)-6,7-dihydro-5H-pyrrolo[3,4-b]pyrazin-5-one] | 24 | 9
22 | 634 | Cc1cn(-c2cc(C#N)c3c(c2)C(=O)N(c2ccc(O[C@H]4C[C@]5(C)CC[C@](C)(C4)N5)nn2)C3)nn1 [Compound 591, 2-(6-(((1R,3s,5S)-1,5-dimethyl-8-azabicyclo[3.2.1]octan-3-yl)oxy)pyridazin-3-yl)-6-(4-methyl-1H-1,2,3-triazol-1-yl)-1-oxoisoindoline-4-carbonitrile] | 109 | 91
23 | – | Cc1nn(C)nc1-c1ncc2c(n1)C(=O)N(c1ccc(O[C@H]3C[C@]4(C)CC[C@](C)(C3)N4)nn1)C2 [Compound 592, 2-(2,5-dimethyl-2H-1,2,3-triazol-4-yl)-6-(6-(((1R,3s,5S)-1,5-dimethyl-8-azabicyclo[3.2.1]octan-3-yl)oxy)pyridazin-3-yl)-5,6-dihydro-7H-pyrrolo[3,4-d]pyrimidin-7-one] | 90 | 54
